# Results as given in publication PMC5967867, “An NMDAR positive and negative allosteric modulator series share a binding site and are interconverted by methyl groups” (eLife, 2018).
# Test system: NMDARs
# Test: Whole-cell recordings of modulation at +40 mV and -60 mV (voltage dependence)
# Assay type: cell-based, rat
# Conditions: 10 µM test compound
# Procedure: Figure 4. The association and dissociation time course of EU1794-2, EU1794-4 and EU1794-27 differ at GluN1/GluN2A and GluN1/GluN2D. (A) Representative whole-cell current recordings of GluN1/GluN2D NMDARs exemplifying the modulation time course of EU1794-2, EU1794-4 and EU1794-27 (1, 3, 10 µM). […] Insets show the steady state modulation extent from the HEK cell experiments fit by the Hill equation (Hill slope fixed to 1). (B) Analysis of the time course for the onset of PAM and NAM action as a function of concentrations for EU1794-2 (left), EU1794-4 (left) and EU1794-27 (right) used to determine the association rate kON (black circles) and dissociation rate kOFF (grey squares), from which we can calculate Kd for each modulator. Data are from at least 3 cells for each concentration of modulator. For EU1794-27 the association and dissociation rate linear component was also found to be concentration dependent (mon = −0.98 pA/(ms*µM), moff = 0.62 pA/(ms*µM)). (C,D) Similar set of panels as A,B but examining EU1794-2, EU1794-4 and EU1794-27 modulation of GluN1/GluN2A. In example recordings, all modulator concentrations are 10 µM. Data are from at least 3 cells for each concentration of modulator. For EU1794-27 time-course was fitted with the sum of an exponential and linear function, and both the time constant and slope were concentration dependent (mon = −0.33 pA/(s*µM), moff = 0.16 pA/(s*µM)). Figure 4—figure supplement 1. The actions of EU1794 modulators are voltage-independent and are influenced by the desensitization level. (A–C) A representative current response of EU1794-2 (A, the ratio of the % modulation by EU1794-2 at +40 mV and −60 mV was 1.1 ± 0.27, n = 3), EU1794-4 (B, the ratio of modulation at +40 mV and −60 mV was 0.88 ± 0.06, n = 6) and EU1794-27 (C, the ratio of modulation at +40 mV and −60 mV was 0.99 ± 0.15, n = 3) modulation with the Vm held at +40 mV and −60 mV; all responses shown were using 10 µM of test compound. […]
row,Compound,ratio of the % modulation at +40 mV and −60 mV
1,"CCOC(=O)c1c(NC(=O)CC2SC(=N)NC2=O)sc2c1CCC(C)C2 (stereo not drawn) [EU1794-2, ethyl 2-(2-(2-imino-4-oxothiazolidin-5-yl)acetamido)-6-methyl-4,5,6,7-tetrahydrobenzo[b]thiophene-3-carboxylate]",1.1 ± 0.27
2,"CCOC(=O)c1c(NC(=O)CC2SC(=N)NC2=O)sc2c1CCCC2 (stereo not drawn) [EU1794-4, ethyl 2-(2-(2-imino-4-oxothiazolidin-5-yl)acetamido)-4,5,6,7-tetrahydrobenzo[b]thiophene-3-carboxylate]",0.88 ± 0.06
3,"CC(C)(C)OC(=O)c1c(NC(=O)CC2SC(=N)NC2=O)sc2c1CCCC2 (stereo not drawn) [EU1794-27, tert-butyl 2-(2-(2-imino-4-oxothiazolidin-5-yl)acetamido)-4,5,6,7-tetrahydrobenzo[b]thiophene-3-carboxylate]",0.99 ± 0.15
